The subject of the assay is Factor XIIIa. Briefly: Factor XIIIa inhibitor assay (14C-putrescine incorporation into N,N-dimethyl-casein). In kind it is biochemical, human. On the procedure:
The Factor XIIIa inhibitor activity may be determined by an assay described in Methods in Enzymology, Vol. 45, Ch 15, pages 177-191 (1976) and using Factor XIII isolated from human plasma. Briefly, the assay is carried out by adding a substrate mixture of ^14 C-putrescine and N,N-dimethyl-casein to an Factor XIII assay mixture previously prepared by adding thrombin and dithiothreitol to Factor XIII in glycerol/water and tris(hydroxymethyl)aminomethane hydrochloride and then adding calcium ions, thereafter, incubating at 37° for 20 minutes, withdrawing samples to a filter disk, precipitating the casein with trichloracetic acid and then counting to determine the extent of incorporation of inhibitor of ^14 C-putrescine in casein. The result for 3-(1-oxo-4,7-nonadienyl)-oxiranecarbonitrile was 60 percent inhibition at 3 mM.

`C/C=C/C/C=C/CCC(=O)[C@H]1O[C@H]1C#N` [3-(1-oxo-4,7-nonadienyl)oxirane-carbonitrile]: under “at 3 mM, Factor XIII isolated from human plasma, 37° for 20 minutes”, the “percent inhibition of Factor XIIIa” value was determined as 60%. The “inhibitory activity against Factor XIIIa (statement in words)” value (plasma transglutaminase enzyme) is given as “inhibitory activity against Factor XIIIa”.

These data come from patent US4908452A, “Process for preparing nitriles” (Merck & Co., Inc., priority 1987, dated 1990).
